Experimental data as given in patent US4918077A, “3-phenyl-5,6-dihydrobenz(c)acridine-7-carboxylic acids and related compounds as cancer chemotherapeutic agents” (E. I. Du Pont de Nemours & Co., Inc., priority 1989, dated 1990).
In brackets after ≈: the same amount, converted by molar mass.

Legend:
L1210 leukemia = test: L1210 Murine Leukemia Test; type: in vivo, mouse; conditions: intraperitoneal, once daily for nine days
Description: (§1) The efficacy of the compounds of this invention against transplanted mouse tumors was evaluated in test systems which are used by the National Cancer Institute for the detection and assessment of anticancer activity. […] J. Cancer, 17, 129-142, (1981); Venditti, J. M., Seminars in Oncology, 8(4)(1981); Goldin, A. and J. M. Venditti in Recent Results in Cancer Research, 70, S. K. Carter and Y. Sakurai, Eds., Springer-Verlag, Berlin/Heidelberg, 1980].
The L1210 tumor line originated in 1948 as a lymphocytic leukemia in a female DBA/2 mouse after the skin was treated with 0.2% 20-methylcholanthrene in ethyl ether. The tumor line is maintained by serial passage in female DBA/2 mice.
On day, 0, female CDF1 mice weighing 18-22 g are inoculated with 1×10^5 L1210 leukemia cells harvested from the ascites of DBA/2 mice. The mice are randomized into groups of six each and the test compounds and vehicle control are administered intraperitoneally once daily for nine consecutive days beginning on day 1. A ≥20% decrease in body weight on day 5 is considered an indication of toxicity. The acceptable control mean survival time is 8-11 days.
Results are expressed as percentage of the mean survival time of the vehicle-treated control group according to the formula: [formula] Mice which survive for 30 days are considered cured and are not included in the calculation of the mean survival time.
The NCI criteria for activity is used. A compound is considered to have moderate activity against L1210 leukemia if it has a % T/C≥125%, and it is considered to have good activity against L1210 leukemia if it has a % T/C≥150%.

[1] = test system: human melanoma RPMI-7272 cells; test: In Vitro RPMI-7272 Human Melanoma Test; type: cell-based; conditions: 72 hours after addition of compound, read-out: ID50 (dose required to inhibit the number of cell doublings by 50%)
Description: The compounds of this invention were also tested for their ability to inhibit the growth of human melanoma RPMI-7272 cells in vitro.
Cells are seeded at 3×10^5 per 35 mm plate to initiate growth inhibition studies. Cultures to receive growth medium only (control cultures) are set up in quadruplicate; cultures to receive varying concentrations of compounds are set up at one dish per dose of compound. Twenty-four hours post-seeding, duplicate control cell cultures are trypsinized and cells are counted using a Coulter Counter (day 1 control counts). At this time, varying concentrations of test compounds, from 100 to 0.00001 μg/mL are added to cultures and growth medium only is added to control cultures. Seventy-two hours after the addition of compound, cells are trypsinized and counted. The numbers of cell population doublings (day 4) in the presence or absence of compound are calculated.
Compounds are dissolved at 10-25 mg/mL in dimethylsulfoxide. Dilutions to 1 mg/mL in complete growth medium are made, followed by stock preparations of 100 and 30 μg/mL in complete growth medium. Serial ten-fold dilutions in complete medium are formulated from the 100 and 30 μg/mL stocks, respectively, and added to cultures.

[2] = test system: DLD-2 human colon carcinoma xenograft; test: DLD-2 Human Colon Carcinoma Xenograft Test; type: in vivo, human tumor in athymic (NU/NU) mice; conditions: dose 50 mg/kg, intraperitoneal, once daily for nine days
Description: as §1
The DLD-2 tumor line was orignally obtained from a primary colon carcinoma surgically removed from a patient. The line is maintained by serial passage in athymic nude mice.
On day 0, male and female outbred Swiss mice bearing the NU/NU gene and weighing 22-30 g are inoculated with 0.2 mL of a 25% tumor mince. […] Tumor measurements and weights are recorded once a week. […]
The efficacy of the test compounds is determined by the extent of tumor growth inhibition in treated versus vehicle-treated control mice. Initial tumor weights (mg) are calculated from the tumor dimensions (mm) using the formula for the volume of a prolate ellipsoid (L×W^2 /2). Net tumor weights are calculated for each of the treated groups and the vehicle-treated control group by subtracting the initial tumor weight (estimated) from the final tumor weight (actual) on day 19. […] Results are expressed as percent inhibition of control growth according to the formula: [formula] […]

B16 melanoma = test: B16 Murine Melanoma Test; type: in vivo, mouse; conditions: intraperitoneal, once daily for nine days
Description: as §1
The B16 tumor line arose spontaneously in 1954 on the skin at the base of the ear of a C57BL mouse. The tumor line is maintained by serial passage in female C57BL mice.
On day 0, female B6C3F1 mice are inoculated intraperitoneally with 0.5 mL of a 10% tumor brei. This brei is prepared by homogenizing fresh B16 tumors, grown subcutaneously in C57BL mice, in cold physiological saline. Mice are randomized in groups of ten each, with 20 animals being in the control group. The test compounds and vehicle control are administered intraperitoneally once daily for nine consecutive days beginning on day 1. A ≥20% decrease in body weight on day 5 is considered an indication of toxicity. The acceptable mean control survival time is 14-22 days. Results are expressed as a percentage of the mean survival time of the vehicle-treated control group according to the formula: [formula] […]

Compound | % T/C (mean survival time, percentage of vehicle-treated control) (L1210 leukemia; dose 100 mg/kg) [%] | IC50 [1] [µg/mL] | % Inhibition (tumor growth) [2] [%] | % T/C (mean survival time, percentage of vehicle-treated control) (B16 melanoma; dose 35 mg/kg) [%] | % T/C (mean survival time, percentage of vehicle-treated control) (L1210 leukemia; dose 50 mg/kg) [%] | % T/C (mean survival time, percentage of vehicle-treated control) (B16 melanoma; dose 50 mg/kg) [%]
O=C(O)c1c2c(nc3ccccc13)-c1ccc(-c3ccccc3)cc1CC2 [Example 1, 5,6-Dihydro-3-phenylbenz[c]acridine-7-carboxylic acid] | 178 | 14.1 (≈ 40.1 µM) | – | – | – | –
O=C(O)c1c2c(nc3ccc(F)cc13)-c1ccc(-c3ccccc3)cc1CC2 [Example 3, 5,6-Dihydro-9-fluoro-3-phenylbenz[c]acridine-7-carboxylic acid] | 180 | 0.05 (≈ 0.135 µM) | 70 | 134 | – | –
O=C([O-])c1c2c(nc3ccc(F)cc13)-c1ccc(-c3ccccc3)cc1CC2.[Na+] [Example 12, 5,6-Dihydro-9-fluoro-3-phenylbenz[c]acridine-7-carboxylic acid, sodium salt] | – | 0.06 | – | – | 171 | 140
O=C(O)c1c2c(nc3ccccc13)-c1cc3sc4ccccc4c3cc1CC2 [Example 24] | – | 1.96 (≈ 5.14 µM) | – | – | – | –
O=C(O)c1c2c(nc3ccc(F)cc13)-c1cc3sc4ccccc4c3cc1CC2 [Example 27, 6,7-Dihydro-3-fluoro[1]-benzothieno[2',3':4,5]benz[1,2-c]acridine-5-carboxylic acid] | 149 | 1.4 (≈ 3.5 µM) | – | – | – | –
